Measurements published in patent US20070264661A1, “METHOD FOR RAPID IDENTIFICATION OF MOLECULES WITH FUNCTIONAL ACTIVITY TOWARDS BIOMOLECULAR TARGETS” (Isis Pharmaceuticals, Inc., priority 2003, published 2007).

Columns and labels:
[1] = tested on: E. coli 16S ribosomal A-site (16S) 27-mer synthetic RNA construct; assay: ESI-FTICR MS screening for noncovalent binding to the 16S RNA construct
Protocol: (§1) Samples were brought to 0.1% heptafluorobutyric acid (HFBA) by the addition of 1% HFBA. A Gilson HPLC system consisting of four 306 pumps and a Gilson 215 liquid handler was used to perform the separations. Sample injection volume was 3 mL. Separation was carried out using a 250×10 mm Phenomenex Aqua C18 column, with a 50×10 mm guard column. Components were eluted using 0.1% HFBA and a gradient of 0 to 40% Acetonitrile (ACN) at a flow rate of 3 mL/min. over 45 minutes. 1 mL fractions were collected every 20 seconds and were assayed without further preparation.
RNA constructs 16S and 16Sc (FIG. 1A) were obtained from Dharmacon Research, Boulder, Colo. The 16Sc construct contains an 18-atom hexaethylene glycol chain attached to the 5′ terminus of the oligonucleotide as supplied by the manufacturer. The addition of this chain results in a net addition of C12H24O9 P (monoisotopic mass calc 344.1236) to the 16Sc oligonucleotide sequence shown in FIG. 1. The RNA was deprotected according to the manufacturer's directions and ethanol precipitated twice from 1 M ammonium acetate. Paromomycin (MW=615.2963 Da), was obtained from Sigma (St. Louis, Mo.) and ICN (Costa Mesa, Calif.).
The construct shown on the left in FIG. 1A (16S) is the 27-mer synthetic RNA containing the E. coli 16S ribosomal A-site (Purohit, P.; Stern, S. Nature 1994, 370, 659-662). Two positions in the E. coli 16S RNA are noted numerically as 1408 and 1492, referring to the location of these residues in the intact 16S rRNA. These positions have been previously shown to be critical for aminoglycoside recognition and binding (Griffey, R. H.; Hofstadler, S. A.; Sannes-Lowery, K. A.; Ecker, D. J.; Crooke, S. T. Proc. Natl. Acad. Sci. U. S. A. 1999, 96, 10129-10133; Fourmy, D.; Recht, M. I.; Blanchard, S. C.; Puglisi, J. D. Science (Washington, D.C.) 1996, 274, 1367-1371).
Mass spectrometry was performed on a modified Bruker Daltonics (Billerica, Mass.) Apex II 70e electrospray ionization Fourier transform ion cyclotron resonance mass spectrometer equipped with an actively shielded 7 tesla superconducting magnet. Experiments were performed with the source at room temperature, the skimmer potential was held at 0 volts, the capillary exit potential was −126 volts, and other experimental parameters were as described in detail elsewhere (Sannes-Lowery, K. A.; Drader, J. J.; Griffey, R. H.; Hofstadler, S. A. TrAC, Trends Anal. Chem. 2000, 19, 481-491). Binding reactions were comprised of 15 μl of a solution containing 2.5 μM 16S and 16Sc in 100 mM NH4OAc and 33% isopropyl alcohol and 2 μl of the LC fraction in a 96-well microtiter plate. […] The plates were vortexed briefly, and then incubated for 60 minutes at room temperature prior to analysis. Sample aliquots were injected directly from 96-well microtiter plates using a CTC HTS PAL autosampler (LEAP Technologies, Carrboro, N.C.).
The presence of both a specific (16S) and non-specific (16Sc) RNA construct enables the simultaneous determination of binding specificity between target and ligand. In the absence of ligand, the initial peak intensity ratio of 16Sc/16S was determined to be 0.3 as shown in the control spectrum shown in FIG. 1B. The peak intensity ration of 16Sc/16S should remain constant in the absence of ligand binding activity. If a ligand specifically binds the 16S RNA target, the peak intensity ratio of 16Sc/16S will […], while a ligand that binds non-specifically to both targets will not cause a significant change in the peak intensity ratio of 16Sc/16S. Thus, monitoring the 16Sc/16S peak intensity ratio is a convenient metric for characterizing binding specificity.

[2] = tested on: 16S control construct (16Sc); assay: ESI-FTICR MS screening for noncovalent binding to the 16Sc control RNA construct; set-up: species or system E. coli
Protocol: as §1
RNA constructs 16S and 16Sc (FIG. 1A) were obtained from Dharmacon Research, Boulder, Colo. The 16Sc construct contains an 18-atom hexaethylene glycol chain attached to the 5′ terminus of the oligonucleotide as supplied by the manufacturer. The addition of this chain results in a net addition of C12H24O9 P (monoisotopic mass calc 344.1236) to the 16Sc oligonucleotide sequence shown in FIG. 1. The RNA was deprotected according to the manufacturer's directions and ethanol precipitated twice from 1 M ammonium acetate. […]
The presence of both a specific (16S) and non-specific (16Sc) RNA construct enables the simultaneous determination of binding specificity between target and ligand. In the absence of ligand, the initial peak intensity ratio of 16Sc/16S was determined to be 0.3 as shown in the control spectrum shown in FIG. 1B. […]

`NC[C@@H]1O[C@H](O[C@H]2[C@@H](O)[C@H](O[C@@H]3[C@@H](O)[C@H](N)C[C@H](N)[C@H]3O[C@H]3O[C@H](CO)[C@@H](O)[C@H](O)[C@H]3N)O[C@@H]2CO)[C@H](N)[C@@H](O)[C@@H]1O` [paromomycin, Paromomycin] was tested, and the “binding specificity 16S vs 16Sc (result in words)” value ([1]; 2.5 μM 16S and 16Sc, 100 mM NH4OAc, 33% isopropyl alcohol) was “binding specifically to 16S RNA”, the “specificity for the 16S RNA target relative to the new molecule (59-fold vs. 5-fold)” value ([1]; fraction 146) was “approximately 11 fold” and the “abundance of the specific complex of 16S+paromomycin compared to 16S” value ([1]; fraction 146 (~54.7 minutes) of S. rimosus sp. paromomycinus broth, 5- charge state, FIG. 4) was 770%. The “specificity of binding to the 16S RNA target over the 16Sc RNA construct” value ([1]; fraction 146, ratio of complex abundances 16S vs 16Sc) was “approximately 59 fold”, the “peak intensity ratio of 16Sc/16S RNA” value ([1]; fraction #131 (~49.5 minutes), baseline ratio without ligand 0.3) was 0.79 and the “number of paromomycin molecules binding to 16S and 16Sc RNA” value ([1]; peak of the paromomycin elution (e.g. fraction 138), data not shown) was “one to four”. For the same compound, the “abundance of the non-specific complex of 16Sc+paromomycin (relative to 16Sc)” value ([2]; fraction 146 (~54.7 minutes), FIG. 4) was 13% and the “binding to the 16Sc RNA (result in words)” value ([2]; fraction #131, peak would be expected at m/z 1982.11) was “does not indicate a peak corresponding to paromomycin binding to the 16Sc RNA”.
